Results on seven compounds are retold here after US10472610B2, “Method for generating pancreatic bud cells and therapeutic agent for pancreatic disease containing pancreatic bud cells” (Kyoto University, priority 2014, dated 2019).

The test system of one experiment is human ES cell line KhES3. The following applies: added in Stage 3 on day 2 or after for 1-2 days.
The test system of experiment [1] is iPS cell line 585A1. The experiment is described as follows: Modified adherent culture protocol, additives during Stage 3, flow cytometer or image analyzer. Conditions: for ratio of PDX1^+NKX6.1^+ cells / ratio of NKX6.1^+ cells: compound in Stage 3 medium, modified protocol, 4 days. It is filed as cell-based, human. Here is the method:
Cells of iPS cell line 585A1 were seeded on a Matrigel coated 24 well plate at a density of 2.0×10^5 cells/well, and the cells were cultured in RPMI 1640 Medium (Nacalai Tesque, Inc.) supplemented with 2% B-27 (Life Technologies), to which 100 ng/ml of activin A (R&D systems), 3 μM of CHIR99021 (Axon Medchem) and 10 μM of Y-27632 (Wako Pure Chemical Industries, Ltd.) were added, for one day. The medium was exchanged with RPMI 1640 Medium containing 100 ng/ml of activin A, 1 μM of CHIR99021 and 2% B-27 (Life Technologies), and the cells were cultured for two days. In addition, the medium was exchanged with RPMI 1640 Medium containing 100 ng/ml of activin A and 2% B-27 (Life Technologies), and the cells were cultured for one day.
The medium was exchanged with Improved MEM Zinc Option (Invitrogen) containing 50 ng/ml of KGF (R&D systems) and 1% B-27 (Life Technologies), and the cells were cultured for 3 or 4 days. Subsequently, the medium was exchanged with Improved MEM Zinc Option containing 50 ng/ml of KGF, 100 ng/ml of Noggin (Peprotech), 10 nM of TTNPB (Santa Cruz Biotechnology), 0.5 μM of 3-Keto-N-aminoethyl-N′-aminocaproyldihydrocinnamoyl Cyclopamine (KAAD-cyclopamine or K-CYC) (Toronto Research Chemicals) and 1% B-27 and the cells were cultured for 2 or 3 days.
On the technique in general: A flow cytometer gives signals particle by particle.

The subject of experiment [2] is iPS cell line 585A1. Briefly: Adherent culture protocol, Y-27632 during Stage 3, flow cytometry of PDX1/NKX6.1. The format is cell-based, human. Conditions: four days. Here is the method: Cells of iPS cell line 585A1 were seeded on a Matrigel coated 24 well plate at a density of 2.0×10^5 cells/well, and cultured in RPMI 1640 Medium (Nacalai Tesque, Inc.) supplemented with 2% B-27 (Life Technologies), 100 ng/ml of activin A (R&D systems), 3 μM of CHIR99021 (Axon Medchem) and 10 μM of Y-27632 (Wako Pure Chemical Industries, Ltd.) for one day. The medium was exchanged with RPMI 1640 Medium containing 100 ng/ml of activin A, 1 μM of CHIR99021 and 2% B-27 (Life Technologies), and the cells were cultured for two days. The medium was then exchanged with RPMI 1640 Medium containing 100 ng/ml of activin A and 2% B-27 (Life Technologies), and the cells were cultured for one day.
The medium of the culture obtained in Stage 1 was exchanged with Improved MEM Zinc Option (Invitrogen) containing 50 ng/ml of KGF (R&D systems) and 1% B-27 (Life Technologies) and the cells were cultured for three days. Subsequently, the medium was exchanged with Improved MEM Zinc Option containing 50 ng/ml of KGF, 100 ng/ml of Noggin (Peprotech), 10 nM of TTNPB (Santa Cruz Biotechnology), 0.5 μM of 3-Keto-N-aminoethyl-N′-aminocaproyldihydrocinnamoyl Cyclopamine (KAAD-cyclopamine or K-CYC) (Toronto Research Chemicals) and 1% B-27, and the cells were cultured for three days.

Procedure for human ES cell line KhES3: In the figure, arrows indicate time periods when ALK5 inhibitor II was added to the medium. […] The expressions were measured by a flow cytometer. In the figure, numbers indicate the ratio of PDX1^+ and NKX6.1^+ cells contained in the culture.
The cells obtained in Stage 2 were dissociated into single cells with trypsin and seeded on a Low Attachment 96-well plate (Lipidure Coat, NOF) at a density of 3.0×10^3 to 3.0×10^4 cells/well. Improved MEM Zinc Option (15×10^4 cells/ml) containing 100 ng/ml of KGF, 100 ng/ml of Noggin, 50 ng/ml of EGF (R&D systems), 10 μM of Y-27632 and 1% B-27 was added to the plate, and the cells were further cultured for 4 to 20 days. During this time period, the medium was exchanged with fresh medium every 4 days. As a control, cells obtained in Stage 2 were dissociated into single cells with trypsin and seeded on a Matrigel coated 24 well plate (Greiner) at a density of 6.0×10^4 to 4.8×10^5 cells/cm^2 and cultured under adhesive conditions in the same medium for four days. […]
The cells obtained at four days after the start of Stage (S3d4) were treated with BD Cytofix/Cytoperm™ Kit, stained with an anti-PDX1 antibody (R&D systems) and an anti-NKX6.1 antibody (University of Iowa), and the ratio of PDX1^+ cells as well as the ratio of PDX1^+NKX6.1^+ cells were determined by using a flow cytometer.

For the compound `Cc1cccc(-c2n[nH]cc2-c2ccc3ncccc3n2)n1` [ALK5 inhibitor II, 2-[3-[6-methylpyridin-2-yl]-1H-pyrazol-4-yl]-1,5-naphthyridine], in the experiment with human ES cell line KhES3, the “ratio of PDX1^+NKX6.1^+ cells” value is “increased”.

`Cc1ccc2c(c1)C(=O)C1(O)CCN(c3ccccc3)C1=N2` (centres unmarked) [Blebbistatin]: in the experiment on iPS cell line 585A1 [1] (Stage 3, modified protocol), the “concentration from which the ratio of PDX1^+NKX6.1^+ cells increased” value stood at 5 µM and the “concentration up to which the effect on the ratio of PDX1^+NKX6.1^+ cells was high” value is given as “up to 20 μM”. In the experiment with iPS cell line 585A1 [1], the “ratio of PDX1^+NKX6.1^+ cells” value is recorded as “increased”.

For `O=S(=O)(c1cccc2cnccc12)N1CCCNCC1` [Fasudil], the “concentration at which the effect on the ratio of PDX1^+NKX6.1^+ cells was highest” value in the experiment on iPS cell line 585A1 [1] (Stage 3, modified protocol) was determined as 50 µM. For the same compound, in the experiment on iPS cell line 585A1 [1], the “ratio of PDX1^+NKX6.1^+ cells” value was “increased in a concentration-dependent manner”.

In the case of `CCn1c(-c2nonc2N)nc2cnc(Oc3cccc(NC(=O)c4ccc(OCCN5CCOCC5)cc4)c3)cc21` [GSK269962], the “concentration at which the effect on the ratio of NKX6.1^+ cells was highest” value in the experiment with iPS cell line 585A1 [1] (Stage 3, modified protocol) was found to be 1 µM. For the same compound, the “ratio of NKX6.1^+ cells” value in the experiment on iPS cell line 585A1 [1] is on record as “increased in a concentration-dependent manner”.

On to `Cc1cncc2cccc(S(=O)(=O)N3CCCNC[C@@H]3C)c12` [H-1152], for which the “concentration at which the effect on the ratio of NKX6.1^+ cells was highest” value in the experiment on iPS cell line 585A1 [1] (Stage 3, modified protocol) was 50 µM. In addition, in the experiment with iPS cell line 585A1 [1], the “ratio of NKX6.1^+ cells” value was “increased in a concentration-dependent manner”.

As for `CN(C)CCOc1cc(-c2cn[nH]c2)ccc1NC(=O)C1COc2ccccc2O1` (centres unmarked) [SR3677], in the experiment on iPS cell line 585A1 [1] (Stage 3, modified protocol), the “concentration at which the effect on the ratio of NKX6.1^+ cells was highest” value is 5 µM. For the same compound, the “ratio of NKX6.1^+ cells” value in the experiment with iPS cell line 585A1 [1] was “increased in a concentration-dependent manner”.

As to `C[C@@H](N)[C@H]1CC[C@H](C(=O)Nc2ccncc2)CC1` [Y-27632], the “concentration at which the effect on the ratio of PDX1^+NKX6.1^+ cells was highest” value in the experiment with iPS cell line 585A1 [2] (Stage 3, adherent culture) was 100 µM. For the same compound, the “ratio of PDX1^+NKX6.1^+ cells” value in the experiment with iPS cell line 585A1 [2] (compound in Stage 3 medium, adherent culture) was “increased in a concentration-dependent manner”.
